{"source": "patent US20220281886A1", "about": "“NATRIURETIC PEPTIDE RECEPTOR A AGONISTS USEFUL FOR THE TREATMENT OF CARDIOMETABOLIC DISEASES, KIDNEY DISEASE AND DIABETES” (Merck Sharp & Dohme Corp., priority 2019, published 2022)"}
{"target": "T1, hNPRA (Homo sapiens, UniProt P16066)", "T1 construct": "expressed in transfected cells", "T1 sequence (P16066 33-1061)": "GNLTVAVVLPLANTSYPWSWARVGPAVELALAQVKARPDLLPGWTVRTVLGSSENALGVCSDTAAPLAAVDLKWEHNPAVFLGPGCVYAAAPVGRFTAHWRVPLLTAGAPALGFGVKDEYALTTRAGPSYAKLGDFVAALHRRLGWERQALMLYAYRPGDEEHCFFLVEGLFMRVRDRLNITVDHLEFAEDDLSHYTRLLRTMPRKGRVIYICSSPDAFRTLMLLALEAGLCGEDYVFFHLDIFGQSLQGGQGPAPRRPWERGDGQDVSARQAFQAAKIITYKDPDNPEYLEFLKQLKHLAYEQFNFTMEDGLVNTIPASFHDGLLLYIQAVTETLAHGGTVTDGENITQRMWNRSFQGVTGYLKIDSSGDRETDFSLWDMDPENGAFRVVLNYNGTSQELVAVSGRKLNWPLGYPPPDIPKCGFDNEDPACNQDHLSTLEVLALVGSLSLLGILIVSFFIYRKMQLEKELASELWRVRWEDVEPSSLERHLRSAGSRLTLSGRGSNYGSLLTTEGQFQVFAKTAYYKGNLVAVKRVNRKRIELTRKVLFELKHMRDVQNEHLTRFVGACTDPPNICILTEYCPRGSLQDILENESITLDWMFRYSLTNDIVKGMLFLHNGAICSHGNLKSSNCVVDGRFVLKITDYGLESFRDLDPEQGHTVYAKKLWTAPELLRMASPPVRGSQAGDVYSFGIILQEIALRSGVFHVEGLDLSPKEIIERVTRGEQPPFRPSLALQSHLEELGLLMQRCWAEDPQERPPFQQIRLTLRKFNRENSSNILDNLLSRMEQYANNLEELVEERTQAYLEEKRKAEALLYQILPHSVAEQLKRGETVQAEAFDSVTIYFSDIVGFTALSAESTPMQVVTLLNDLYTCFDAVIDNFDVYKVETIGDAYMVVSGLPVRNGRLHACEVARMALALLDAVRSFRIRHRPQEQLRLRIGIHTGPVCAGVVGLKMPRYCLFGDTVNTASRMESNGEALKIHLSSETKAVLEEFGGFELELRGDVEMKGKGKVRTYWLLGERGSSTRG", "assay": "NPRA Functional Cell Assay (cGMP HTRF)", "format": "cell-based", "settings": "Human NPRA HEK JumpIn stable cells; cGMP by HTRF after 1 hour at 37° C.; 10-point dose response", "from_the_text": "Assay Buffer components HEPES and Opti-MEM® I Reduced-Serum with Glutamine (no phenol red) were from Gibco/Invitrogen (Thermo Fisher Scientific, Waltham, Mass. USA). 3-Isobutyl-1-methylxanthine (IBMX) and 4-(3-Butoxy-4-methoxybenzyl)imidazolidin-2-one (RO20) were obtained from Sigma-Aldrich (St. Louis, Mo., USA). DPBS (Dulbecco's phosphate-buffered saline) without Ca2+ and Mg2+ was purchased from GE Healthcare Bio-Sciences (Pittsburgh, Pa., USA). 384 well white Optiplates were from Perkin Elmer (Atlantic Highlands, N.J., USA). Human ANP (Atrial Natriuretic Peptide) (1-28) was purchased from Sigma-Aldrich (Catalog #A1663) and rat ANP (1-28) from Bachem (Torrance, Calif., USA) (Catalog #H2100). Human-BNP (Human-Brain Natriuretic Peptide) (1-32 AA) was purchased from American Peptide Company (Sunnyvale, Calif., USA) (product No. 14-1-90). cGMP kits were purchased from Cisbio. The assay ready frozen (ARF) Human/rat/dog NPRA HEK JumpIn Stable frozen cells (low passage number 5-11) were prepared in-house.\nTest compounds were titrated in DMSO in a 10-point dose response in a separate step followed by a 100-fold dilution into the reaction. Positive response for each assay was determined using 10 nM rat-ANP peptide (rat cells) or 50 nM h-ANP peptide (human and dog cells).\nCells were thawed, washed with DPBS and resuspended in assay buffer (Opti-MEM+Glutamine, phenol red free media, 10 mM HEPES, 100 uM IBMX and 100 uM RO20) that was warmed to 37° C. Cells were then transferred to microplates via a Microplate Combi dispenser at a density of 1500, 400 and 1200 cells/well for human, rat and dog cells respectively, followed by acoustic transfer (Echo) of compound.\n(§1) Compounds and cells were incubated at 37° C. with 5% CO2 for 1 hour, after which the cells were lysed and cGMP was captured using a CisBio cGMP HTRF assay kit. The TRF signal was measured with an Envision plate reader (emission set to 615 and 665 nm) after 1 hour incubation at ambient temperature. The TRF signal was converted to [cGMP] through the use of a cGMP calibration curve on each microplate. EC50's were generated from the resulting dose response curves by use of a 4 parameter logistic algorithm.\nAssay Buffer components HEPES and Opti-MEM® I Reduced-Serum with Glutamine (no phenol red) were from Gibco/Invitrogen. 3-Isobutyl-1-methylxanthine (IBMX) and 4-(3-Butoxy-4-methoxybenzyl)imidazolidin-2-one (RO20) were obtained from Sigma. DPBS (Dulbecco's phosphate-buffered saline) without Ca2+ and Mg2+ was purchased from GE Healthcare Bio-Sciences (Pittsburgh, Pa., USA). 384 well white Optiplates were from Perkin Elmer (Atlantic Highlands, N.J., USA). Human ANP (1-28) was purchased from Sigma (A1663) and rat ANP (1-28) from Bachem (H2100). Human-BNP (1-32 AA) was purchased from American Peptide Company (Sunnyvale, Calif., USA) (product No. 14-1-90). cGMP kits were purchased from Cisbio (Bedford, Mass., USA). The assay ready frozen (ARF) Human/rat/dog NPRA HEK JumpIn Stable frozen cells (low passage number 5-11) were prepared in-house.\nas §1, with “Envision®” for “Envision”, “(Perkin Elmer)(emission” for “(emission”\nhNPRA EC50 (nM) are were determined for the compounds of Example 1 through 273 and are reported in the Experimental section of this application.", "units": {"EC50": "nM"}}
{"compound": "CN1CC(NC(=O)c2cccc([C@@H](CCN3CCC(CC(=O)O)CC3)NC(=O)c3ccc4nc5c(cc4c3)C[C@@H](C3(C)CC3)CC5)c2)C1", "note": "(racemic) [Example 66, 2-[1-[rac-(3R)-3-[3-[(1-methylazetidin-3-yl)carbamoyl]phenyl]-3-[[rac-(7S)-7-(1-methylcyclopropyl)-5,6,7,8-tetrahydroacridine-2-carbonyl]amino]propyl]-4-piperidyl]acetic acid]", "EC50": 398}
{"compound": "CC(C)[C@]1(F)CCc2nc3c(F)cc(C(=O)N[C@H](CCN4CCC5(CCO5)CC4)c4ccc(-c5ccnnc5)nc4)cc3cc2C1", "note": "[Example 17, (7S)-4,7-difluoro-7-(1-methylethyl)-N-[(1R)-3-(1-oxa-7-azaspiro[3.5]non-7-yl)-1-(6-pyridazin-4-ylpyridin-3-yl)propyl]-5,6,7,8-tetrahydroacridine-2-carboxamide]", "EC50": 217}
{"compound": "CC(C)[C@]1(F)CCc2nc3c(F)cc(C(=O)N[C@H](CCN4CCC5(CC[C@@H](O)C5)CC4)c4ccc(-c5ccnnc5)nc4)cc3cc2C1", "note": "(racemic) [Example 49, rac-(7S)-4,7-difluoro-7-isopropyl-N-[rac-(1R)-1-(6-pyridazin-4-yl-3-pyridyl)-3-[rac-(3R)-3-hydroxy-8-azaspiro[4.5]decan-8-yl]propyl]-6,8-dihydro-5H-acridine-2-carboxamide]", "EC50": 98.5}
{"compound": "CC(C)[C@]1(F)CCc2nc3c(F)cc(C(=O)N[C@H](CCN4CCCCC4CO)c4ccc(-c5ccnnc5)nc4)cc3cc2C1", "note": "(mixture of isomers) [Example 58, rac-(7S)-4,7-difluoro-7-isopropyl-N-[rac-(1R)-3-[2-(hydroxymethyl)-1-piperidyl]-1-(6-pyridazin-4-yl-3-pyridyl)propyl]-6,8-dihydro-5H-acridine-2-carboxamide]", "EC50": 79.7}
{"compound": "CC(C)[C@]1(F)CCc2nc3c(F)cc(C(=O)N[C@H](CCN4CCC(O)CC4)c4ccc(N5CCOC5=O)cc4)cc3cc2C1", "note": "[Example 6, (7S)-4,7-difluoro-N-{(1R)-3-(4-hydroxypiperidin-1-yl)-1-[4-(2-oxo-1,3-oxazolidin-3-yl)phenyl]propyl}-7-(1-methylethyl)-5,6,7,8-tetrahydroacridine-2-carboxamide]", "EC50": 114}
{"compound": "CC(C)[C@]1(F)CCc2nc3c(F)cc(C(=O)N[C@H](CCN4CCC(O)CC4)c4ccc(N5CC[C@@H](O)[C@H](F)C5)nc4)cc3cc2C1", "note": "[Example 33, (S)-4,7-difluoro-N-((R)-1-(6-((3R,4R)-3-fluoro-4-hydroxypiperidin-1-yl)pyridin-3-yl)-3-(4-hydroxypiperidin-1-yl)propyl)-7-isopropyl-5,6,7,8-tetrahydroacridine-2-carboxamide]", "EC50": 871}
{"compound": "CC(C)[C@]1(F)CCc2nc3c(F)cc(C(=O)N[C@H](CCN4CCC(O)CC4)c4cnc(-c5ccnnc5)c(F)c4)cc3cc2C1", "note": "[Example 20, (7S)-4,7-difluoro-N-[(1R)-1-(5-fluoro-6-pyridazin-4-ylpyridin-3-yl)-3-(4-hydroxypiperidin-1-yl)propyl]-7-(1-methylethyl)-5,6,7,8-tetrahydroacridine-2-carboxamide]", "EC50": 125}
{"compound": "CC(C)[C@]1(F)CCc2nc3c(F)cc(C(=O)N[C@H](CCN4CCC(O)CC4)c4ccc(N5CC6CCC5CO6)nc4)cc3cc2C1", "note": "(stereo partly drawn) [Example 34, (7S)-N-((1R)-1-(6-(2-oxa-5-azabicyclo[2.2.2]octan-5-yl)pyridin-3-yl)-3-(4-hydroxypiperidin-1-yl)propyl)-4,7-difluoro-7-isopropyl-5,6,7,8-tetrahydroacridine-2-carboxamide]", "EC50": 2840}
{"compound": "COCC1CCN(CC[C@@H](NC(=O)c2cc(F)c3nc4c(cc3c2)C[C@](F)(C(C)C)CC4)c2ccc(-c3ccnnc3)nc2)CC1", "note": "(racemic) [Example 46, rac-(7S)-4,7-difluoro-7-isopropyl-N-[rac-(1R)-3-[4-(methoxymethyl)piperidin-1-ium-1-yl]-1-(6-pyridazin-4-yl-3-pyridyl)propyl]-6,8-dihydro-5H-acridine-2-carboxamide;2,2,2-trifluoroacetate]", "EC50": 204}
{"compound": "CC(C)[C@]1(F)CCc2nc3c(F)cc(C(=O)N[C@H](CCN4CCC5(O)CCCCC5C4)c4ccc(-c5ccnnc5)nc4)cc3cc2C1", "note": "(mixture of isomers) [Example 52, rac-(7S)-4,7-difluoro-7-isopropyl-N-[rac-(1R)-3-(4a-hydroxy-1,3,4,5,6,7,8,8a-octahydroisoquinolin-2-yl)-1-(6-pyridazin-4-yl-3-pyridyl)propyl]-6,8-dihydro-5H-acridine-2-carboxamide]", "EC50": 258}
{"compound": "CC(C)[C@]1(F)CCc2nc3c(F)cc(C(=O)N[C@H](CCN4CCC[C@@H](O)C4)c4ccc(-c5ccnnc5)nc4)cc3cc2C1", "note": "(racemic) [Example 40, rac-(7S)-4,7-difluoro-7-isopropyl-N-[rac-(1R)-1-(6-pyridazin-4-yl-3-pyridyl)-3-[rac-(3R)-3-hydroxypiperidin-1-ium-1-yl]propyl]-6,8-dihydro-5H-acridine-2-carboxamide;2,2,2-trifluoroacetate]", "EC50": 338}
{"compound": "CC1CCCCN1CC[C@@H](NC(=O)c1cc(F)c2nc3c(cc2c1)C[C@](F)(C(C)C)CC3)c1ccc(-c2ccnnc2)nc1", "note": "(mixture of isomers) [Example 44, rac-(7S)-4,7-difluoro-7-isopropyl-N-[rac-(1R)-3-(2-methylpiperidin-1-ium-1-yl)-1-(6-pyridazin-4-yl-3-pyridyl)propyl]-6,8-dihydro-5H-acridine-2-carboxamide;2,2,2-trifluoroacetate]", "EC50": 150}
{"compound": "CC(C)[C@]1(F)CCc2nc3c(F)cc(C(=O)N[C@H](CCN4CCC(C(=O)O)CC4)c4ccc(-c5cnc(O)c(F)c5)cc4)cc3cc2C1", "note": "[Example 25, 1-((R)-3-((S)-4,7-difluoro-7-isopropyl-5,6,7,8-tetrahydroacridine-2-carboxamido)-3-(4-(5-fluoro-6-hydroxypyridin-3-yl)phenyl)propyl)piperidine-4-carboxylic acid]", "EC50": 167}
